According to patent US20190010158A1, “ANTITUMOR EFFECT POTENTIATOR COMPRISING PYRROLOPYRIMIDINE COMPOUND” (TAIHO PHARMACEUTICAL CO., LTD, priority 2015, published 2019):
“And” between values parts separate entries of the source, which are not always exact repeats. Identical values can stand only once. Like-named read-outs stand apart in the source and are kept apart here. Values belong to the compound of their own block, whether it stands above or below them.

Key:
[1] = system: tumor cell lines shown in Table 42; test: Example 11: combined use with antimetabolite, cell growth inhibition test (IC50 ratio, CI); format: cell-based; conditions: for Comprehensive Evaluation: combined use with Reference Example Compound 55
[2] = system: tumor cell lines shown in Table 26; test: Example 3: combined use with serine-threonine kinase inhibitor, cell growth inhibition test (IC50 ratio, CI); conditions: for Comprehensive Evaluation: combined use with Reference Example Compound 55
[3] = system: human acute T lymphoblastic leukemia CCRF-CEM cell lines; test: Cell growth inhibition 1 (CellTiter-Glo); format: cell-based; conditions: culture with test compound 72 hours
[4] = TMD-8, IC50 of Reference Example Compound 55 : IC50 of other compound = 1:value
[5] = A549, IC50 of Reference Example Compound 55 : IC50 of other compound = 1:value

Compound: CO[C@H]1C[C@@H]2CC[C@@H](C)[C@@](O)(O2)C(=O)C(=O)N2CCCC[C@H]2C(=O)O[C@H]([C@H](C)C[C@@H]2CC[C@@H](OCCO)[C@H](OC)C2)CC(=O)[C@H](C)/C=C(\C)[C@@H](O)[C@@H](OC)C(=O)[C@H](C)C[C@H](C)/C=C/C=C/C=C/1C [Everolimus, everolimus]
- IC50 Ratio ([2]; VMRC-RCW, IC50 of Reference Example Compound 55 : IC50 of other compound = 1:value): 6
- Comprehensive Evaluation ([2]; VMRC-RCW): Synergism (0.3-0.7)

Compound: CC[C@H](Nc1ncnc2[nH]cnc12)c1nc2cccc(F)c2c(=O)n1-c1ccccc1 [Idelalisib, idelalisib]
- IC50 Ratio [2, 4]: 23
- CI ([2]; TMD-8, Reference Example Compound 55:other compound 1:11, at ED50): 0.57
- CI ([2]; TMD-8, Reference Example Compound 55:other compound 1:33, at ED50): 0.64
- Comprehensive Evaluation ([2]; TMD-8): Synergism (0.3-0.7)

Compound: NC1(c2ccc(-c3nc4ccn5c(=O)[nH]nc5c4cc3-c3ccccc3)cc2)CCC1 [MK2206]
- IC50 Ratio [2, 5]: 5
- CI ([2]; A549, Reference Example Compound 55:other compound 1:3, at ED50): 0.31
- CI ([2]; A549, Reference Example Compound 55:other compound 1:9, at ED50): 0.35
- Comprehensive Evaluation ([2]; A549): Synergism (0.3-0.7)

Compound: CO[C@H]1C[C@@H]2CC[C@@H](C)[C@@](O)(O2)C(=O)C(=O)N2CCCC[C@H]2C(=O)O[C@H]([C@H](C)C[C@@H]2CC[C@@H](O)[C@H](OC)C2)CC(=O)[C@H](C)/C=C(\C)[C@@H](O)[C@@H](OC)C(=O)[C@H](C)C[C@H](C)/C=C/C=C/C=C/1C [Rapamycin, rapamycin]
- IC50 Ratio [2, 5]: 0.1
- Comprehensive Evaluation ([2]; A549): Synergism (0.3-0.7)

Compound: CCS(=O)(=O)c1cc(N2CC[C@@H](O)C2)cc(F)c1C#Cc1cn([C@@H]2O[C@H](CNS(N)(=O)=O)[C@@H](O)[C@H]2O)c2ncnc(N)c12 [Reference Example 72, 4-Amino-7-[(2R,3R,4S,5R)-3,4-dihydroxy-5-[(sulfamoylamino)methyl]tetrahydrofuran-2-yl]-5-[2-[2-ethylsulfonyl-6-fluoro-4-[(3R)-3-hydroxypyrrolidin-1-yl]phenyl]ethynyl]pyrrolo[2,3-d]pyrimidine]
- IC50 [3]: 0.088 µM

Compound: Nc1ncnc2c1c(C#Cc1cccc3c1S(=O)(=O)CCC3)cn2[C@@H]1O[C@H](CNS(N)(=O)=O)[C@@H](O)[C@H]1O [Reference Example 83, 4-Amino-7-[(2R,3R,4S,5R)-3,4-dihydroxy-5-[(sulfamoylamino)methyl]tetrahydrofuran-2-yl]-5-[2-(1,1-dioxo-3,4-dihydro-2H-thiochromen-8-yl)ethynyl]pyrrolo[2,3-d]pyrimidine]
- IC50 [3]: 0.056 µM

Compound: Nc1ncnc2c1c(C#Cc1c(F)cccc1S(N)(=O)=O)cn2[C@@H]1O[C@H](CNS(N)(=O)=O)[C@@H](O)[C@H]1O [Reference Example 84, 2-[2-[4-Amino-7-[(2R,3R,4S,5R)-3,4-dihydroxy-5-[(sulfamoylamino)methyl]tetrahydrofuran-2-yl]pyrrolo[2,3-d]pyrimidin-5-yl]ethynyl]-3-fluoro-benzenesulfonamide]
- IC50 [3]: 0.23 µM

Compound: Nc1ncnc2c1c(C#Cc1c(F)cccc1OCC1CC1)cn2[C@@H]1O[C@H](CNS(N)(=O)=O)[C@@H](O)[C@H]1O [Reference Example 86, 4-Amino-5-[2-[2-(cyclopropylmethoxy)-6-fluoro-phenyl]ethynyl]-7-[(2R,3R,4S,5R)-3,4-dihydroxy-5-[(sulfamoylamino)methyl]tetrahydrofuran-2-yl]pyrrolo[2,3-d]pyrimidine]
- IC50 [3]: 0.0055 µM

Compound: CSc1cccc(F)c1C#Cc1cn([C@@H]2C[C@H](CNS(N)(=O)=O)[C@@H](O)[C@H]2O)c2ncnc(N)c12 [Reference Example 98, 4-Amino-7-[(1R,2S,3R,4R)-2,3-dihydroxy-4-[(sulfamoylamino)methyl]cyclopentyl]-5-[2-(2-fluoro-6-methylsulfanyl-phenyl)ethynyl]pyrrolo[2,3-d]pyrimidine]
- IC50 [3]: 0.0073 µM

Compound: Nc1ncnc2c1c(C#Cc1c(F)cc(N3CC[C@@H](O)C3)cc1F)cn2[C@@H]1C[C@H](CNS(N)(=O)=O)[C@@H](O)[C@H]1O [Reference Example 120, 4-Amino-5-[2-[2,6-difluoro-4-[(3R)-3-hydroxypyrrolidin-1-yl]phenyl]ethynyl]-7-[(1R,2S,3R,4R)-2,3-dihydroxy-4-[(sulfamoylamino)methyl]cyclopentyl]pyrrolo[2,3-d]pyrimidine]
- IC50 [3]: 0.035 µM

Compound: Nc1ncnc2c1c(C#Cc1cccc3c1S(=O)(=O)CCC3)cn2[C@@H]1C[C@H](CNS(N)(=O)=O)[C@@H](O)[C@H]1O [Reference Example 123, 4-Amino-7-[(1R,2S,3R,4R)-2,3-dihydroxy-4-[(sulfamoylamino)methyl]cyclopentyl]-5-[2-(1,1-dioxo-3,4-dihydro-2H-thiochromen-8-yl)ethynyl]pyrrolo[2,3-d]pyrimidine]
- IC50 [3]: 0.097 µM

Compound: CC[C@@H]1C(=O)N(C)c2cnc(Nc3ccc(C(=O)N[C@H]4CC[C@H](N5CCN(CC6CC6)CC5)CC4)cc3OC)nc2N1C(C)C [Volasertib, volasertib]
- IC50 Ratio ([2]; HL-60, IC50 of Reference Example Compound 55 : IC50 of other compound = 1:value): 14
- CI ([2]; HL-60, Reference Example Compound 55:other compound 1:11, at ED50): 0.95
- CI ([2]; HL-60, Reference Example Compound 55:other compound 1:33, at ED50): 0.82
- Comprehensive Evaluation ([2]; HL-60): Additive (0.9-1.10)

Compound: AZD5363
- CI [2]: 0.33 and 0.38
- IC50 Ratio [2]: 67

Now from value to compound, other results behind:

- IC50 Ratio ([1]; MM.1S, IC50 of Reference Example Compound 55 : IC50 of other compound = 1:value): 169
Compound: Sc1ncnc2nc[nH]c12 [6-Mercaptopurine, 6-mercaptopurine]
- CI ([1]; MM.1S, Reference Example Compound 55:other compound 1:100, at ED50): 0.61
- CI ([1]; MM.1S, Reference Example Compound 55:other compound 1:300, at ED50): 0.80
- Comprehensive Evaluation ([1]; MM.1S): Moderate

- IC50 Ratio [1]: 48
Compound: Nc1ccn([C@@H]2O[C@H](CO)[C@@H](O)[C@@H]2O)c(=O)n1 [Cytarabine, cytarabine]
- CI [1]: 0.52 and 0.66
- Comprehensive Evaluation ([1]; HCT116): Synergism (0.3-0.7)

- IC50 Ratio [2, 4]: 2
Compound: C[C@H](Nc1ncnc2nc[nH]c12)c1cc2cccc(Cl)c2c(=O)n1-c1ccccc1 [Duvelisib, duvelisib]
- CI ([2]; TMD-8, Reference Example Compound 55:other compound 1:1.2, at ED50): 0.42
- CI ([2]; TMD-8, Reference Example Compound 55:other compound 1:3.7, at ED50): 0.43
- Comprehensive Evaluation ([2]; TMD-8): Synergism (0.3-0.7)

- IC50 [3]: 0.015 µM
Compound: CCS(=O)(=O)c1cc(N2CCCC2)cc(F)c1C#Cc1cn([C@@H]2O[C@H](CNS(N)(=O)=O)[C@@H](O)[C@H]2O)c2ncnc(N)c12 [Reference Example 70, 4-Amino-7-[(2R,3R,4S,5R)-3,4-dihydroxy-5-[(sulfamoylamino)methyl]tetrahydrofuran-2-yl]-5-[2-(2-ethylsulfonyl-6-fluoro-4-pyrrolidin-1-yl-phenyl)ethynyl]pyrrolo[2,3-d]pyrimidine]

- IC50 [3]: 0.045 µM
Compound: COc1cncc(F)c1C#Cc1cn([C@@H]2O[C@H](CNS(N)(=O)=O)[C@@H](O)[C@H]2O)c2ncnc(N)c12 [Reference Example 71, 4-Amino-7-[(2R,3R,4S,5R)-3,4-dihydroxy-5-[(sulfamoylamino)methyl]tetrahydrofuran-2-yl]-5-[2-(3-fluoro-5-methoxy-4-pyridyl)ethynyl]pyrrolo[2,3-d]pyrimidine]

- IC50 [3]: 0.071 µM
Compound: Nc1ncnc2c1c(C#Cc1c(F)cccc1Cl)cn2[C@@H]1O[C@H](CNS(N)(=O)=O)[C@@H](O)[C@H]1O [Reference Example 73, 4-Amino-5-[2-(2-chloro-6-fluoro-phenyl)ethynyl]-7-[(2R,3R,4S,5R)-3,4-dihydroxy-5-[(sulfamoylamino)methyl]tetrahydrofuran-2-yl]pyrrolo[2,3-d]pyrimidine]

- IC50 [3]: 0.038 µM
Compound: N#Cc1cccc(F)c1C#Cc1cn([C@@H]2O[C@H](CNS(N)(=O)=O)[C@@H](O)[C@H]2O)c2ncnc(N)c12 [Reference Example 85, 4-Amino-5-[2-(2-cyano-6-fluoro-phenyl)ethynyl]-7-[(2R,3R,4S,5R)-3,4-dihydroxy-5-[(sulfamoylamino)methyl]tetrahydrofuran-2-yl]pyrrolo[2,3-d]pyrimidine]
